What all share (assay type): biochemical
Experiment [1] deals with T1, Human recombinant PDE3A (hPDE3A) (Homo sapiens, UniProt Q14432).
T1 construct: purchased Scottish Biomedical; host or cells: Sf9 insect cells
Briefly: In vitro assay PDE3A (SPA, 3H-cAMP hydrolysis).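 For all read-outs here: the method names PDE3A and the table heading PDE3B.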 The following applies: for IC50: hPDE3B pIC50, read-out: pIC50 (converted); for Emax: read-out: hPDE3B Emax, read-out: Emax. The method in brief: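 Radiometric SPA measuring [3H]-cAMP hydrolysis (0.4 μM cAMP, 2.4 μCi/ml) over 60 min at room temperature, in Tris pH 7.8 buffer with MgCl2 and EGTA, 1% DMSO. Enzyme: recombinant human brain PDE3A expressed in Sf9 cells, used as partially purified lysate. Counts compared with enzyme-free blanks and vehicle controls.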

Experiment [2] deals with T2, Human recombinant PDE2A (hPDE2A) (Homo sapiens, UniProt O00408).
T2 construct: His tag (inferred from metal chelate purification); made in house; host or cells: Sf9 insect cells (baculovirus)
Briefly: In vitro assay PDE2A (SPA, 3H-cGMP hydrolysis). The following applies: for Emax: read-out: hPDE2A Emax; for IC50: read-out: hPDE2A pIC50 (converted).

The target of experiment [3] is T3, Human recombinant PDE10A (hPDE10A) (Homo sapiens, UniProt Q9Y233).
T3 construct: His tag (inferred from metal chelate purification); made in house; host or cells: Sf9 insect cells (baculovirus)
In words: In vitro assay PDE10A, human clone (SPA, 3H-cAMP hydrolysis). A digest of the protocol:
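Hydrolysis of 3H-cAMP (60 nM cAMP, 0.008 μCi tracer) proceeded for 60 min at room temperature, with the product detected by SPA bead scintillation counting. The enzyme was hPDE10A from baculovirus-infected Sf9 cells in Tris pH 7.8 buffer with MgCl2 and EGTA, and compounds were at 1% DMSO final. Blanks lacked enzyme.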

[4] abbreviates: human clone by default (no (r) mark), read-out: hPDE10A2 or rPDE10A2 Emax.
Where [5] appears, read: human clone by default (no (r) mark), read-out: hPDE10A2 or rPDE10A2 pIC50 (converted).
Setting [6] is: human recombinant PDE2A, 10 μM cGMP substrate.
The mark [7] stands for this setting: human clone (h), default, read-out: hPDE10A2 Emax.
Setting [8] is: human clone (h), default, read-out: hPDE10A2 pIC50 (converted).

Where two headings read alike, the source gives them in different places.

Results on 22 compounds are retold here after patent US10947242B2, “[1,2,4]triazolo[1,5and#8208;A]pyrimidine compounds as PDE2 inhibitors” (Janssen Pharmaceutica NV, priority 2016, dated 2021).

T3 sequence (Q9Y233 267-1055): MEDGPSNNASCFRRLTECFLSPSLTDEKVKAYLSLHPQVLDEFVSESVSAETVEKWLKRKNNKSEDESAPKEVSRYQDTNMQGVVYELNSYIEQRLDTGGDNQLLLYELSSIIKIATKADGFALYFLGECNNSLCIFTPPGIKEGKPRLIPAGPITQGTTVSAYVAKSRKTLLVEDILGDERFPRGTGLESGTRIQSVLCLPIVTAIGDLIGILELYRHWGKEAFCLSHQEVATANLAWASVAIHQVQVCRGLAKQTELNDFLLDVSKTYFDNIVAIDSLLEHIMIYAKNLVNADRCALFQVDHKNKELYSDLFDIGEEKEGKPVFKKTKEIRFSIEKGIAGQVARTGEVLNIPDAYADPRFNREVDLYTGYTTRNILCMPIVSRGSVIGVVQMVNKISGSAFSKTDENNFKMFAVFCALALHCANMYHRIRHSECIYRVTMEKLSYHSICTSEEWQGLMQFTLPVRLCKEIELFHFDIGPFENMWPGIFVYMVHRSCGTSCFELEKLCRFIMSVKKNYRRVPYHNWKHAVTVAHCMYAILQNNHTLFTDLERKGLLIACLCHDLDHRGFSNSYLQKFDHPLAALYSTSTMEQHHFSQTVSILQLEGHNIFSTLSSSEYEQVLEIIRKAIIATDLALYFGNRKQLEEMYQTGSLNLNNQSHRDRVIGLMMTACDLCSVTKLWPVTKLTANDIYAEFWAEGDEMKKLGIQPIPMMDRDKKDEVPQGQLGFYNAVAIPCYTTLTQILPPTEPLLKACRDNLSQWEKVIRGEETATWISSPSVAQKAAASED
T1 sequence (Q14432 whole entry): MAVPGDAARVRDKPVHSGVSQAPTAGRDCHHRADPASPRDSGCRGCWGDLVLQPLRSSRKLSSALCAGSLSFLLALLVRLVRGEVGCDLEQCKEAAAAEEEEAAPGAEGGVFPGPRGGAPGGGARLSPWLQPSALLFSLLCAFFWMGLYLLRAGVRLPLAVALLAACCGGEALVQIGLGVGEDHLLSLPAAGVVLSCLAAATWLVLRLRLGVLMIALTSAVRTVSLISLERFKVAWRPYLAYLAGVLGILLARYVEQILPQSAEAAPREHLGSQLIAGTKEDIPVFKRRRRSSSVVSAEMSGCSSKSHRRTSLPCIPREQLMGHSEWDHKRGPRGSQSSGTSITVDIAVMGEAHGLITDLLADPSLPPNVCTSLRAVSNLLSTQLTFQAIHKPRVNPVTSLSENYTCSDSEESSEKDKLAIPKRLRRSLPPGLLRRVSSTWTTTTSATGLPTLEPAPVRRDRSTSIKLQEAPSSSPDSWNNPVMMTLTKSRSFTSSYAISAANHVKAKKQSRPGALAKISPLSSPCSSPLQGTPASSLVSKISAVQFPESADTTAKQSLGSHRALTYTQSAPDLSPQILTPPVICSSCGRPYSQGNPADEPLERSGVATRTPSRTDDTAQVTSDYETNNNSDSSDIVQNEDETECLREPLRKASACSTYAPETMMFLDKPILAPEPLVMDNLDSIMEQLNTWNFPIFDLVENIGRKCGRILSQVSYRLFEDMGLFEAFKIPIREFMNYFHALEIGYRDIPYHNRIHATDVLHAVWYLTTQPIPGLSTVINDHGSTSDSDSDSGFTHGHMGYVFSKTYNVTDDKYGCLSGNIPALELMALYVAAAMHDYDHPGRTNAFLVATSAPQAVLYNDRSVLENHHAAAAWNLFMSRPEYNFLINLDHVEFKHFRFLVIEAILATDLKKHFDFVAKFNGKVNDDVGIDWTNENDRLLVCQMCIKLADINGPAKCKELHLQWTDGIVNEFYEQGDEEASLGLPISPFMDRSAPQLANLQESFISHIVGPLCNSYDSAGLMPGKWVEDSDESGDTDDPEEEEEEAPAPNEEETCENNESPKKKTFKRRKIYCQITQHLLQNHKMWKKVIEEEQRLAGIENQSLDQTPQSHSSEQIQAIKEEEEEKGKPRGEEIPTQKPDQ
T2 sequence (O00408 whole entry): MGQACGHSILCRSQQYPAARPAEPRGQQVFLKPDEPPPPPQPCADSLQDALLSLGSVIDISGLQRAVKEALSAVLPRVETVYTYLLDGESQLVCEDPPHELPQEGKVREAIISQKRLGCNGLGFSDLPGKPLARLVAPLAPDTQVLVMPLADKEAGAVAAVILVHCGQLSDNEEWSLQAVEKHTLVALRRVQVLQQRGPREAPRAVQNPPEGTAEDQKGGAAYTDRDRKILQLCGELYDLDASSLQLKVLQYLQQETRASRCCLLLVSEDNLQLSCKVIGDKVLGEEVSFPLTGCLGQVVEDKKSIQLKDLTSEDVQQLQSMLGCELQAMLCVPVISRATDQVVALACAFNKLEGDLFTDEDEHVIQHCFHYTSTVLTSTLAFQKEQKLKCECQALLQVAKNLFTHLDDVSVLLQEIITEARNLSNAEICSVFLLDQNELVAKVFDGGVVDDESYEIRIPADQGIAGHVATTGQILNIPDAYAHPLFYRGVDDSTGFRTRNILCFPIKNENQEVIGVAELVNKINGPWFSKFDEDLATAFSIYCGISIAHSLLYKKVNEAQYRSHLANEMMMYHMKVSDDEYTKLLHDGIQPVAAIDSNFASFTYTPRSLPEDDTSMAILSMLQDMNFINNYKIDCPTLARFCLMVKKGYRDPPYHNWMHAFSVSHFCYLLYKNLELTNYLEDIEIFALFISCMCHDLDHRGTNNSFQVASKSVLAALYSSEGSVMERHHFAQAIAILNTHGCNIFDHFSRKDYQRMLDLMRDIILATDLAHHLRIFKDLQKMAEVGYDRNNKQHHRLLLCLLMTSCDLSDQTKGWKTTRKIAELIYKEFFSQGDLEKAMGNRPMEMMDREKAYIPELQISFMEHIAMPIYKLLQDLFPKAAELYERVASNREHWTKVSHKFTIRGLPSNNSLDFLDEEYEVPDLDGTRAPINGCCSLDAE

The Emax is the greatest response seen or fitted, relative to the assay's reference. For `O=C(c1cccc2cccnc12)N1[C@H]2CC[C@H](c3cc(C(F)F)nc4ncnn34)[C@@H]1CC2` [Compound 316], the IC50 was > 10000 nM in experiment [1], 257 nM in experiment [2] and > 10000 nM in experiment [3] (setting [5]). The maximum response (Emax) in experiment [1] was 5%; in experiment [2] it was 94%; in experiment [3] (setting [4]), 14%.

As for `C[C@@H]1CCN(C(=O)c2ccc(O)c(F)c2)C[C@H]1c1cc(C(F)F)nc2ncnn12` [Compound 168], the IC50 in experiment [1] was 5130 nM; in experiment [2] (setting [6]) it was 3.98 nM; in experiment [2], 3.98 nM; in experiment [3] (setting [8]) it was 53.7 nM. Also, the maximal response (Emax) in experiment [1] turned out to be 66%; in experiment [2] (human recombinant PDE2A), 98%; in experiment [2] it was 98%; in experiment [3] (setting [7]) it was 99%.

Take `Cc1cc([C@@H]2CN(C(=O)c3cc4c(nc3Cl)CCCC4)CC[C@H]2C)n2ncnc2n1` [Compound 12]: the IC50 in experiment [1] is 1100 nM; in experiment [2] (setting [6]), 21.4 nM; in experiment [2], 21.4 nM; in experiment [3] (setting [8]), 363 nM. Further, the maximal effect (Emax) in experiment [1] was determined as 94%; in experiment [2] (human recombinant PDE2A), 101%; in experiment [2] it was 101%; in experiment [3] (setting [7]), 97%.

As for `C/C(=C\c1ccccc1)C(=O)N1[C@H]2CC[C@H](c3cc(C(F)F)nc4ncnn34)[C@@H]1CC2` [Compound 371], the IC50 in experiment [1] is 389 nM; in experiment [2], 13.8 nM; in experiment [3] (setting [5]), 389 nM. For the same compound, the maximum response (Emax) was found to be 96% in experiment [1], 101% in experiment [2] and 98% in experiment [3] (setting [4]).

For `Cc1cc([C@@H]2CN(C(=O)c3cnc4ccc(C(F)(F)F)cn34)CC[C@H]2C)n2ncnc2n1` [Compound 20], the IC50 in experiment [1] is 4270 nM; in experiment [2] (setting [6]), 12 nM; in experiment [2] it was 12 nM; in experiment [3] (setting [8]), 132 nM. The Emax in experiment [1] is 74%; in experiment [2] (human recombinant PDE2A), 101%; in experiment [2] it was 101%; in experiment [3] (setting [7]), 98%.

Consider `CC(C)Oc1cc(C(=O)N2CC[C@@H](C)[C@H](c3cc(C(F)F)nc4ncnn34)C2)cc(C(C)C)c1` [Compound 144], for which the IC50 was 2400 nM in experiment [1], 34.7 nM in experiment [2] (setting [6]), 34.7 nM in experiment [2] and 468 nM in experiment [3] (setting [8]). Besides, the Emax in experiment [1] stood at 86%; in experiment [2] (human recombinant PDE2A) it was 100%; in experiment [2], 100%; in experiment [3] (setting [7]), 96%.

`C[C@@H]1CCN(C(=O)c2cccc(N)n2)C[C@H]1c1cc(C(F)F)nc2ncnn12` [Compound 162]: the IC50 was > 10000 nM in experiment [1], 74.1 nM in experiment [2] (setting [6]), 74.1 nM in experiment [2] and 4270 nM in experiment [3] (setting [8]). The Emax stood at 26% in experiment [1], 97% in experiment [2] (human recombinant PDE2A), 97% in experiment [2] and 72% in experiment [3] (setting [7]).

`Cc1cc([C@@H]2CN(C(=O)c3oc4ccccc4c3C)CC[C@H]2C)n2ncnc2n1` [Compound 7]: the IC50 was 75.9 nM in experiment [1], 0.794 nM in experiment [2] (setting [6]), 0.794 nM in experiment [2] and 17 nM in experiment [3] (setting [8]). Besides, the Emax was found to be 100% in experiment [1], 100% in experiment [2] (human recombinant PDE2A), 100% in experiment [2] and 101% in experiment [3] (setting [7]).

Turning to `C[C@@H]1CCN(C(=O)c2ccnn2C)C[C@H]1c1cc(C(F)F)nc2ncnn12` [Compound 57], the IC50 was > 10000 nM in experiment [1], 27.5 nM in experiment [2] (setting [6]), 27.5 nM in experiment [2] and 3160 nM in experiment [3] (setting [8]). For the same compound, the Emax in experiment [1] came to 21%; in experiment [2] (human recombinant PDE2A), 100%; in experiment [2] it was 100%; in experiment [3] (setting [7]), 78%.

`Cn1ccc2cc(C(=O)N3[C@H]4CC[C@H](c5cc(C(F)F)nc6ncnn56)[C@@H]3CC4)cc(F)c21` [Compound 374]: the values for the IC50 in experiment [1], in experiment [2] and in experiment [3] (setting [5]) were 741 nM, 0.741 nM and 182 nM, respectively. Further, the maximal response (Emax) was determined as 97% in experiment [1], 100% in experiment [2] and 98% in experiment [3] (setting [4]).

For the compound `C[C@@H]1CCN(C(=O)c2cc(-c3ccco3)nn2C)C[C@H]1c1cc(C(F)F)nc2ncnn12` [Compound 98], the IC50 in experiment [1] was 603 nM; in experiment [2] (setting [6]) it was 0.603 nM; in experiment [2] it was 0.603 nM; in experiment [3] (setting [8]), 39.8 nM. The Emax amounted to 94% in experiment [1], 100% in experiment [2] (human recombinant PDE2A), 100% in experiment [2] and 98% in experiment [3] (setting [7]).

For the compound `O=C(c1ccc(F)c(OC(F)F)c1)N1[C@H]2CC[C@H](c3cc(C(F)F)nc4ncnn34)[C@@H]1CC2` [Compound 345], the figures for the IC50 in experiment [1], in experiment [2] and in experiment [3] (setting [5]) were 8320 nM, 75.9 nM and 3720 nM, respectively. Further, the maximum response (Emax) in experiment [1] was determined as 48%; in experiment [2] it was 99%; in experiment [3] (setting [4]) it was 72%.

On to `C[C@@H]1CCN(C(=O)c2ccc3ccccc3n2)C[C@H]1c1cc(C(F)F)nc2ncnn12` [Compound 323], for which the IC50 in experiment [1] is 724 nM; in experiment [2] it was 3.89 nM; in experiment [3] (setting [5]), 224 nM. For the same compound, the Emax in experiment [1] was 95%; in experiment [2] it was 100%; in experiment [3] (setting [4]) it was 97%.

With `CCCC[C@@H]1CCN(C(=O)c2cc(C)nc(C)c2)C[C@H]1c1cc(C(F)F)nc2ncnn12` (mixture of isomers) [Compound 44], the IC50 in experiment [1] is > 10000 nM; in experiment [2] (setting [6]), 9.55 nM; in experiment [2], 9.55 nM; in experiment [3] (setting [8]), 2570 nM. In addition, the Emax in experiment [1] came to 39%; in experiment [2] (human recombinant PDE2A), 100%; in experiment [2], 100%; in experiment [3] (setting [7]), 79%.

Take `O=C(c1cc(F)cc(F)c1)N1[C@H]2CC[C@H](c3cc(C(F)F)nc4ncnn34)[C@@H]1CC2` [Compound 341]: the IC50 is > 10000 nM in experiment [1], 141 nM in experiment [2] and 5010 nM in experiment [3] (setting [5]). Besides, the Emax came to 33% in experiment [1], 97% in experiment [2] and 63% in experiment [3] (setting [4]).

On to `Cc1coc2ccc(C(=O)N3CC[C@@H](C)[C@H](c4cc(C(F)F)nc5ncnn45)C3)cc12` [Compound 92], for which the IC50 was 1320 nM in experiment [1], 0.398 nM in experiment [2] (setting [6]), 0.398 nM in experiment [2] and 24.5 nM in experiment [3] (setting [8]). Also, the Emax in experiment [1] amounted to 88%; in experiment [2] (human recombinant PDE2A) it was 100%; in experiment [2], 100%; in experiment [3] (setting [7]), 98%.

In the case of `Cc1csc(C(=O)N2CCC[C@](C)(c3cc(C(F)F)nc4ncnn34)C2)c1` (single isomer, unassigned) [Compound 208], the IC50 in experiment [1] is > 10000 nM; in experiment [2] (setting [6]) it was 589 nM; in experiment [2], 589 nM; in experiment [3] (setting [8]) it was > 10000 nM. The Emax in experiment [1] amounted to 30%; in experiment [2] (human recombinant PDE2A), 62%; in experiment [2], 62%; in experiment [3] (setting [7]), 4%.

`C[C@@H]1CCN(C(=O)c2cnc(O)c(Cl)c2)C[C@H]1c1cc(C(F)F)nc2ncnn12` [Compound 173]: the IC50 in experiment [1] was > 10000 nM; in experiment [2] (setting [6]), 13.8 nM; in experiment [2], 13.8 nM; in experiment [3] (setting [8]), 302 nM. Moreover, the maximal effect (Emax) in experiment [1] is 31%; in experiment [2] (human recombinant PDE2A) it was 101%; in experiment [2], 101%; in experiment [3] (setting [7]), 96%.

Regarding `C[C@@H]1CCN(C(=O)c2ccc(F)c(F)c2F)C[C@H]1c1cc(C(F)F)nc2ncnn12` [Compound 245], the IC50 is 5890 nM in experiment [1], 123 nM in experiment [2], 2190 nM in experiment [3] (setting [8]) and 2190 nM in experiment [3] (setting [5]). Besides, the Emax turned out to be 62% in experiment [1], 99% in experiment [2], 79% in experiment [3] (setting [7]) and 79% in experiment [3] (setting [4]).

`C[C@@H]1CCN(C(=O)c2cccc3ocnc23)C[C@H]1c1cc(C(F)F)nc2ncnn12` [Compound 183]: the IC50 is > 10000 nM in experiment [1], 26.3 nM in experiment [2] (setting [6]), 26.3 nM in experiment [2] and 2290 nM in experiment [3] (setting [8]). Further, the Emax worked out at 36% in experiment [1], 99% in experiment [2] (human recombinant PDE2A), 99% in experiment [2] and 79% in experiment [3] (setting [7]).

In the case of `Cc1cc(C(=O)N2CC[C@@H](C)[C@H](c3cc(C(F)F)nc4ncnn34)C2)nc(C)n1` [Compound 141], the IC50 in experiment [1] was > 10000 nM; in experiment [2] (setting [6]), 29.5 nM; in experiment [2], 29.5 nM; in experiment [3] (setting [8]), 2040 nM. Further, the Emax in experiment [1] is 12%; in experiment [2] (human recombinant PDE2A), 100%; in experiment [2], 100%; in experiment [3] (setting [7]), 81%.

For the compound `O=C(c1ccc(F)c(F)c1)N1[C@H]2CC[C@H](c3cc(C(F)F)nc4ncnn34)[C@@H]1CC2` [Compound 337], the values for the IC50 in experiment [1], in experiment [2] and in experiment [3] (setting [5]) were > 10000 nM, 166 nM and 4570 nM, respectively. Also, the maximum response (Emax) in experiment [1] came to 43%; in experiment [2], 99%; in experiment [3] (setting [4]), 71%.
